Active and inactive are the calls of the source. The calls are words filed in the database; no cut-off is given here.
Tests used:
[1] = target: T1, Calpain-1 catalytic subunit (Homo sapiens) (UniProt P07384); test: Inhibition of calpain (unknown origin) at 1 uM using Suc-LY-AMC as fluorogenic substrate after 60 mins by spectrofluorometric analysis relative to calpeptin
T1 sequence (whole entry): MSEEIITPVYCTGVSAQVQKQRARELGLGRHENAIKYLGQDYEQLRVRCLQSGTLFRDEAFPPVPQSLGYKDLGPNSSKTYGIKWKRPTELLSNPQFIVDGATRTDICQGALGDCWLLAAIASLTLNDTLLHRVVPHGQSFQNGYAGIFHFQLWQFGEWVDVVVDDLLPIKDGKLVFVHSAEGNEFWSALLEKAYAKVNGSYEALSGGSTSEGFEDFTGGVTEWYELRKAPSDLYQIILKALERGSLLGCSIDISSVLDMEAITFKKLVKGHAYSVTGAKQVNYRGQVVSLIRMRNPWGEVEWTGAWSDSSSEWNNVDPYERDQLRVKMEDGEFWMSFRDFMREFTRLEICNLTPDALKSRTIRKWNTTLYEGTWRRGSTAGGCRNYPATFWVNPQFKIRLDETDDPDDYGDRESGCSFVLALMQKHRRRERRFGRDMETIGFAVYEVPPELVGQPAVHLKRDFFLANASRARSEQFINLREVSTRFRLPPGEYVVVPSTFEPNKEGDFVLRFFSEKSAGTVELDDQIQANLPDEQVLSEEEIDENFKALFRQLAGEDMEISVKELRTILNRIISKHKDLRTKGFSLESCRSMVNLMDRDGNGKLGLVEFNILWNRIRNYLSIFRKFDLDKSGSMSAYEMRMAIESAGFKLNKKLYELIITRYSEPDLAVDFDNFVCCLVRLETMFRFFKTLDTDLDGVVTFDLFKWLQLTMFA

[2] = target: T2, Calpain-1 catalytic subunit (Homo sapiens, UniProt P07384); test: Inhibition of calpain (unknown origin) using Suc-LY-AMC as fluorogenic substrate after 60 mins by spectrofluorometric analysis
T2 sequence (P07384 whole entry): T1 sequence (whole entry)

HK-2 [3] = test: Cytotoxicity against human HK2 cells at 0.1 to 10 uM after 24 hrs by MTT assay; assay type: cell-based; conditions: hk-2, 24 h
HK-2 [4] = test: Cytoprotective activity against NaN3-induced apoptosis in human HK2 cells at 0.1 to 10 uM pre-incubated with NaN3 for 30 mins followed by 24 hrs recovery with compound propidium iodide staining-based flow cytometric analysis; assay type: functional, cell-based
[5] = target: T1, Calpain-1 catalytic subunit (Homo sapiens); test: Uncompetitive inhibition of calpain (unknown origin) at 1 to 10 uM using Suc-LY-AMC as fluorogenic substrate after 60 mins by Lineweaver-Burk plot analysis
HK-2 [6] = test: Cytoprotective activity against NaN3-induced apoptosis in human HK2 cells at 1 uM pre-incubated with 200 mM NaN3 for 30 mins followed by 24 hrs recovery with compound propidium iodide staining-based flow cytometric analysis (reference value: 27.3 +/- 4.9%); assay type: functional
HK-2 [7] = test: Induction of apoptosis in human HK2 cells at 1 uM after 24 hrs by propidium iodide staining-based flow cytometric analysis (reference value: 3.8 +/- 1%); assay type: cell-based; conditions: hk-2, 24 h

| inhibition [1] | IC50 [2] | SMILES | also measured |
| --- | --- | --- | --- |
| 21.5% | > 1000 nM | COCCN/C(=C1/N=C(c2ccccc2)N(CCOC)C1=O)c1cc2ccccc2[nH]1 |  |
| 73.7% | 460 nM | COCCN/C(=C1/N=CN(CCOC)C1=O)c1cc2ccccc2[nH]1 | Activity (HK-2 [3]): Non-Toxic; Activity (HK-2 [4]): Active; inhibition [5]: Active |
| 71.8% | 1020 nM | COCCCN/C(=C1/N=CN(CCOC)C1=O)c1cc2ccccc2[nH]1 |  |
| 79.4% | 380 nM | COCCN/C(=C1/N=CN(CCOC)C1=O)c1cc2cccnc2[nH]1 |  |
| 75.4% | 350 nM | CCCCN/C(=C1/N=CN(CCOC)C1=O)c1cc2ccccc2[nH]1 |  |
| 14% |  | CCCCN/C(=C1/N=CN(CCCC)C1=O)c1cc2ccccc2[nH]1 |  |
| 93% | 20 nM | COCCN/C(=C1/N=C(C)N(CCOC)C1=O)c1cc2ccccc2[nH]1 |  |
| 64.6% | > 1000 nM | COCCN1C=N/C(=C(/NCCN(C)C)c2cc3ccccc3[nH]2)C1=O |  |
| 37.2% |  | CC(C)N/C(=C1/N=CN(C(C)C)C1=O)c1cc2cccnc2[nH]1 |  |
| 57.8% | > 1000 nM | CC(C)N/C(=C1/N=CN(C(C)C)C1=O)c1cc2ccccc2[nH]1 |  |
| 76.8% | 1080 nM | COCCN/C(=C1/N=CN(CCOC)C1=O)c1[nH]c2ccccc2c1I |  |
| 9% |  | O=C1/C(=C(\NC2CCCCC2)c2cc3ccccc3[nH]2)N=CN1C1CCCCC1 |  |
| 62.9% | > 1000 nM | COCCN/C(=C1/N=CN(CCOC)C1=O)c1[nH]c2ccccc2c1Br |  |
| 11.7% |  | O=C1/C(=C(\NCc2ccccc2)c2cc3cccnc3[nH]2)N=CN1Cc1ccccc1 |  |
|  |  | CCCC[C@@H](C=O)NC(=O)[C@H](CC(C)C)NC(=O)OCc1ccccc1 [CALPEPTIN] | Activity (HK-2 [6]): 9.9%; Activity (HK-2 [7]): 5.9% |
| 4.5% |  | O=C1/C(=C(\NC2CCCCC2)c2cc3cccnc3[nH]2)N=CN1C1CCCCC1 |  |
| 71.9% | > 1000 nM | COCCN/C(=C1/N=CN(CCOC)C1=O)c1[nH]c2ccccc2c1Cl |  |
| 28.2% |  | O=C1/C(=C(\NCc2ccccc2)c2cc3ccccc3[nH]2)N=CN1Cc1ccccc1 |  |

From ChEMBL document CHEMBL4261583, “Discovery of potent calpain inhibitors based on the azolo-imidazolidenone scaffold” (Eur J Med Chem, 2018)
